# Assays:
# Assay type in all cases: in vivo
# [1] = tested on: Rhizopus stolonifer (RIZPST); assay: Field microplot assessment on Rhizopus rot on apricots; details: field grown apricots
# Text: A field trial assessing the utility of Compound I on rot diseases of stone fruits was done using apricots in a microplot method, part of an experimental trial designed as a randomized complete block with four replications. In a microplot method, two mature fruits on a single branch or cluster of fruits were selected for each replication (for a total of 10 replications) instead of using an entire replication. Colored flagging identified treatments. Fungicidal treatments containing Compound I, applied in a 5% EC formulation and tank mixed with an adjuvant (Trycol, 50% w/w at 0.2% v/v), were sprayed on apricots (PRNAR) at rates of 50, 100, and 150 grams of active ingredient per hectare (g ai/ha). The applications to the selected mature apricots were done at 7 days before harvest using a hand held manual spray bottle at a water volume of 500 L/ha. One day after application, a ZipLoc plastic bag was placed over the fruit or fruit cluster and an inoculation mix of MONIFC (Rhizopus was from natural population present in the orchard) was sprayed inside covering the fruits. The plastic bags were removed after 24 hours. At harvest, the fruits were collected in the field and placed in plastic Tupperware containers. 150 mL of de-ionized water was poured in the bottom of the Tupperware containers and the fruits were sprayed with a light mist of water. The containers were brought to the lab, enclosed in a large trash bag to keep the humidity high, and incubated on a lab bench at approximately 23° C. Visual disease incidence was assessed during the trial at 9 and 16 days after application. Area under the disease progress curve (AUDPC) was calculated for each plot using the sets of recorded incidence data. Relative AUDPC (% control based on AUDPC) was calculated as percent of the nontreated control.
# [2] = tested on: Botrytis cinerea (BOTRCI); assay: Field assessment of gray mold on grapevine
# Text: On grapevine: A fungicidal treatment containing Compound I, applied in a 5% EC formulation and tank mixed with an adjuvant (Trycol, 50% w/w at 0.2% v/v), was sprayed only on the bunch portion of grape plants (VITVI, Pinot grey variety) at rates of 50, 150 and 200 grams of active ingredient per hectare (g ai/ha). The trial was based on two applications 28 days apart in open field conditions with disease inoculation 3 days after the last application (plant growth stage B83). The treatment was part of an experimental trial designed as a randomized complete block with four replications and a plot of approximately 2.5×7.0 m. Formulations of compound I were applied at water volume of 500 L/ha (bunches only), using a backpack plot sprayer ([…], Solo 433; Airatom nozzle). Disease severity was recorded as a percentage of incidence and infection of damaged bunches on a random sample of 100 bunches per plot. Gray mold infection was assessed three times, the first at 22 days after the last application (22DAAB), the second and third at 28DAAB and 36DAAB. Area under the disease progress curve (AUDPC) was calculated for each plot using the sets of recorded severity data. Relative AUDPC (% control based on AUDPC) was calculated as percent of the nontreated control.
# [3] = tested on: Mycosphaerella fijiensis (MYCOFI); assay: Field assessment of black sigatoka on banana; details: bananas; for Area Under Disease Progression Curve (AUDPC) from severity assessments: 52-59 days after application; for Percent control calculated from severity percentage: 52 days after application
# Method: Aliquots of a 5% EC formulation of compound I were diluted with water and mixed with Spraytex CT mineral oil (6 L CP/Ha) to achieve active ingredient rates of 25, 50, 100 and 150 g ai/Ha. These treatments were delivered to the foliar affected area of single leaves (application volume of 40 L/Ha) by means of an Aerograph spayer through a plastic molding with an application area of 9×12 centimeters. A single application was delivered to leaf 1 (preventive and very early curative), and leaf 3 (curative effect). Experimental design was based on a randomized complete block, and 4 replications. MYCOFI symptoms resulted from natural inoculation and epidemic development.
# Percent disease control was calculated using the ratio of disease severity on treated leaves relative to untreated leaves. Black sigatoka infection was assessed five times during the trial: 31 days after application (31DAA), 38DAA, 45DAA, 52DAA and 59DAA. Area under the disease progress curve (AUDPC) was calculated for each plot using the sets of recorded severity data. Relative AUDPC (% control based on AUDPC) was calculated as percent of the nontreated control.
# [4] = tested on: Tranzschelia discolor (TRANDI); assay: Field assessment of rust in almond; details: untreated 61.3
# Text: A fungicidal treatment containing Compound I, applied in an SC formulation (MSO-buit in) and tank mixed with an adjuvant (Adsee C80W 80%), was sprayed on almond trees (PRNDU, Butte variety) with 2 applications at growth stages BBCH67-69 and BBCH69-72 at rates of 60, 120, 150, and 180 g ai/ha. The experimental plots were run under natural infestation. The treatments were part of an experimental trial designed as a randomized complete block (RCB) with three replications and a plot of approximately 16×22 ft. Compound I was applied at water volume of 100 gal/acre, using a motorized backpack sprayer.
# Percent leaf incidence (calculated from number of visual diseased leaves per 50 leaves per one tree) was assessed and recorded at 105 days after application A (105 DAAA).
structure (smiles),measurement,setting,value
"COc1ccnc(C(=O)N[C@@H](C)C(=O)O[C@@H](C)C(c2ccc(F)cc2)c2ccc(F)cc2)c1OC(C)=O [Compound I, (S)-1,1-bis(4-fluorophenyl)propan-2-yl (3-acetoxy-4-methoxypicolinoyl)-L-alaninate]","Percent control (AUDPC) from fruit incidence, RIZPST",[1]; 50 g ai/ha,B (51-75)
same,"Percent control (AUDPC) from fruit incidence, RIZPST",[1]; 100 g ai/ha,C (26-50)
same,"Percent control (AUDPC) from fruit incidence, RIZPST",[1]; 150 g ai/ha,C (26-50)
same,Percent control (AUDPC) from fruit infection assessments,[2]; 50 g ai/ha,B (51-75)
same,Percent control (AUDPC) from fruit infection assessments,[2]; 150 g ai/ha,A (76-100)
same,Percent control (AUDPC) from fruit infection assessments,[2]; 200 g ai/ha,A (76-100)
same,Area Under Disease Progression Curve (AUDPC) from severity assessments,"[3]; Leaf 1 (Preventive), 25 g ai/ha, untreated 665",198
same,Percent control calculated from severity percentage,"[3]; Leaf 1 (Preventive), 25 g ai/ha",B (51-75)
same,Area Under Disease Progression Curve (AUDPC) from severity assessments,"[3]; Leaf 1 (Preventive), 50 g ai/ha, untreated 665",211
same,Percent control calculated from severity percentage,"[3]; Leaf 1 (Preventive), 50 g ai/ha",B (51-75)
same,Area Under Disease Progression Curve (AUDPC) from severity assessments,"[3]; Leaf 1 (Preventive), 100 g ai/ha, untreated 665",203
same,Percent control calculated from severity percentage,"[3]; Leaf 1 (Preventive), 100 g ai/ha",B (51-75)
same,Area Under Disease Progression Curve (AUDPC) from severity assessments,"[3]; Leaf 1 (Preventive), 150 g ai/ha, untreated 665",183
same,Percent control calculated from severity percentage,"[3]; Leaf 1 (Preventive), 150 g ai/ha",B (51-75)
same,Area Under Disease Progression Curve (AUDPC) from severity assessments,"[3]; Leaf 3 (Curative), 25 g ai/ha, untreated 464",357
same,Percent control calculated from severity percentage,"[3]; Leaf 3 (Curative), 25 g ai/ha",C (26-50)
same,Area Under Disease Progression Curve (AUDPC) from severity assessments,"[3]; Leaf 3 (Curative), 50 g ai/ha, untreated 464",317
same,Percent control calculated from severity percentage,"[3]; Leaf 3 (Curative), 50 g ai/ha",C (26-50)
same,Area Under Disease Progression Curve (AUDPC) from severity assessments,"[3]; Leaf 3 (Curative), 100 g ai/ha, untreated 464",289
same,Percent control calculated from severity percentage,"[3]; Leaf 3 (Curative), 100 g ai/ha",C (26-50)
same,Area Under Disease Progression Curve (AUDPC) from severity assessments,"[3]; Leaf 3 (Curative), 150 g ai/ha, untreated 464",293
same,Percent control calculated from severity percentage,"[3]; Leaf 3 (Curative), 150 g ai/ha",C (26-50)
same,Percent Visual Leaf Incidence of TRANDI 89 DAAB,"[4]; 60 g ai/ha, MSO, 120 g ai/ha",13.3%
same,Percent Visual Leaf Incidence of TRANDI 89 DAAB,"[4]; 120 g ai/ha, Adsee C80W, 300 g ai/ha",11.3%
same,Percent Visual Leaf Incidence of TRANDI 89 DAAB,"[4]; 120 g ai/ha, MSO, 240 g ai/ha",9.3%
same,Percent Visual Leaf Incidence of TRANDI 89 DAAB,"[4]; 150 g ai/ha, MSO, 300 g ai/ha",6.0%
same,Percent Visual Leaf Incidence of TRANDI 89 DAAB,"[4]; 180 g ai/ha, MSO, 360 g ai/ha",6.0%
